Legend:
Format in all cases: in vivo
[1] = system: Maize (variety Garland); experiment: Post-emergence crop safening on maize, general crop injury; settings: post-emergence spray at 2-3 leaves; 500 g/ha Compound 41 alone or with 100 g/ha safener; 0.25% v/v Tween 20; evaluated after 21 days; mean of two replicates
Method: Maize (variety Garland) and soya (variety Nikko) seeds were sown into standard soil in pots and cultivated under controlled conditions in a glasshouse (at 24/18° C. day/night; 16 hours light; 65% humidity).
When the plants were at the vegetative stage of 2-3 leaves they were sprayed with an aqueous spray solution containing a compound of formula (I) alone and in combination with a number of different herbicide safeners. All the compounds used for the spray solution were present as technical material and the safeners were either an EC, SC or WP formulation respectively or technical material. In addition a non-ionic surfactant (Tween 20) was added to form a 0.25% v/v solution.
(§1) The spray solution was applied with a cabinet tracksprayer with a flat fan nozzle (Teejet 11002VS) and an application volume of 200 L/ha (at 2 bar).
(§2) The test plants were then grown on in a glasshouse under controlled conditions (at 24/18° C. day/night; 16 hours light; 65% humidity) and watered twice a day. After 21 days the test was evaluated for general crop injury (100% equals total damage to plant; 0% equals no damage to plant).
Results are shown below in Table 3 as the mean % visual phytotoxicity of two replicates and in Table 4 as the mean % visual phytotoxicity of a single replicate.

[2] = system: Maize (variety Claxxon); experiment: Pre-emergence safening on corn, seed treated with safener, general crop injury; settings: 250 g/ha compound of formula (I) sprayed the day after planting, evaluated after 21 days; for Percentage damage, corn treated with safener A: seed treated with safener A at 0.2 g per kg seed, mean of two replicates; for Percentage damage, untreated corn: seed without safener, mean % visual phytotoxicity of two replicates
Method: (§3) Maize (variety Claxxon) and wheat (variety Hereward) seeds were treated with a herbicide safener at a rate of 0.2 g safener per kg seed (maize) and 0.25 g safener per kg seed (wheat) prior to sowing. Treated and untreated seeds were sown into standard soil in troughs. The safeners used were N-(2-methoxybenzoyl)-4-Rmethylaminocarbonyl)aminoThenzenesulfonamide (safener A in Table 2) and cloquintocet-mexyl.
(§4) The day after planting the troughs were sprayed with an aqueous spray solution prepared by dissolving the technical active ingredient in an organic solvent and diluting with deionised water to give a final dose of 250 g/ha of a compound of formula (I).
as §1, §2
(§5) Results are shown below in Table 2 as the mean % visual phytotoxicity of two replicates.

[3] = system: wheat (variety Hereward); experiment: Pre-emergence safening on wheat, seed treated with safener, general crop injury; settings: 250 g/ha compound of formula (I) sprayed the day after planting, evaluated after 21 days; for Percentage damage, wheat treated with cloquintocet-mexyl: seed treated with cloquintocet-mexyl at 0.25 g per kg seed, mean of two replicates; for Percentage damage, untreated wheat: seed without safener, mean % visual phytotoxicity of two replicates
Method: as §3, §4, §1, §2, §5

[4] = system: soya (variety Nikko); experiment: Post-emergence crop safening on soya, general crop injury; settings: compound of formula (I) alone at 200 g/ha, post-emergence spray at 2-3 leaf stage, evaluated after 21 days; 100% = total damage, 0% = no damage; single replicate
Method: Maize (variety Garland) and soya (variety Nikko) seeds were sown into standard soil in pots and cultivated under controlled conditions in a glasshouse (at 24/18° C. day/night; 16 hours light; 65% humidity). […] All the compounds used for the spray solution were present as technical material and the safeners were either an EC, SC or WP formulation respectively or technical material. In addition a non-ionic surfactant (Tween 20) was added to form a 0.25% v/v solution. The spray solution was applied with a cabinet tracksprayer with a flat fan nozzle (Teejet 11002VS) and an application volume of 200 L/ha (at 2 bar). The test plants were then grown on in a glasshouse under controlled conditions (at 24/18° C. day/night; 16 hours light; 65% humidity) and watered twice a day. […] Results are shown below in Table 3 as the mean % visual phytotoxicity of two replicates and in Table 4 as the mean % visual phytotoxicity of a single replicate.

Row | Compound | Percentage damage caused to maize [1] [%] | Percentage damage, corn treated with safener A [2] [%] | Percentage damage, untreated corn [2] [%] | Percentage damage, wheat treated with cloquintocet-mexyl [3] [%] | Percentage damage, untreated wheat [3] [%] | Percentage damage caused to soya (mean % visual phytotoxicity, general crop injury) [4] [%]
1 | O=C1COCCN1Cc1ccccc1NS(=O)(=O)C(F)(F)F [Compound 41] | 25 | 5 | 80 | 10 | 35 | 30
2 | CCOC(=O)N(c1ccccc1CN1CCCN(C)S1(=O)=O)S(=O)(=O)C(F)(F)F [Compound 146] | – | 0 | 22.5 | 17.5 | 40 | –
3 | CCC(=O)N(c1ccccc1CN1CCCC(SC)C1=O)S(=O)(=O)C(F)(F)F (stereo not shown) [Compound 16] | – | 2.5 | 86 | 15 | 40 | –
4 | CN1CCCN(Cc2ccccc2N(C(=O)OCCl)S(=O)(=O)C(F)(F)F)S1(=O)=O [Compound 145] | – | 0 | 20 | 5 | 10 | –
5 | CC1(C)CN(Cc2ccccc2NS(=O)(=O)C(F)(F)F)C(=O)O1 [Compound 85] | – | 15 | 65 | 15 | 40 | –
6 | CCOC(=O)N(c1ccccc1CN1CCCCC1=O)S(=O)(=O)C(F)(F)F [Compound 7] | – | 10 | 98 | 30 | 50 | –
7 | CC1(C)CC(=O)N(Cc2ccccc2N(C(=O)OCCl)S(=O)(=O)C(F)(F)F)O1 [Compound 21] | – | 20 | 30 | 5 | 20 | –
8 | CC(C)COC(=O)N(c1ccccc1CN1CCCN(C)S1(=O)=O)S(=O)(=O)C(F)(F)F [Compound 147] | – | 2.5 | 15 | 5 | 25 | –
9 | CC1(C(F)(F)F)CCN(Cc2ccccc2N(C(=O)OCCl)S(=O)(=O)C(F)(F)F)C(=O)O1 (stereo not shown) [Compound 102] | – | 0 | 5 | 0 | 10 | –
10 | CCOC(=O)N(c1ccccc1CN1CCCCS1(=O)=O)S(=O)(=O)C(F)(F)F [Compound 133] | – | 10 | 20 | 5 | 25 | –
11 | O=C1CCCN1Cc1ccccc1NS(=O)(=O)C(F)(F)F [Compound 1] | – | 5 | 30 | 5 | 35 | –
12 | CCC1(C(F)(F)F)CCN(Cc2ccccc2NS(=O)(=O)C(F)(F)F)C(=O)O1 (stereo not shown) [Compound 106] | – | – | – | – | – | 15
13 | CCCC(=O)N(c1ccccc1CN1CCCCC1=O)S(=O)(=O)C(F)(F)F [Compound 6] | – | 5 | 80 | 10 | 30 | –
14 | CCOC(=O)N(c1ccccc1CN1CCC(C)(C(F)(F)F)OC1=O)S(=O)(=O)C(F)(F)F (stereo not shown) [Compound 103] | – | 0 | 10 | 0 | 15 | –
15 | O=C1CCCCN1Cc1ccccc1NS(=O)(=O)C(F)(F)F [Compound 5] | – | 25 | 55 | 20 | 45 | –
16 | O=C1NCCCN1Cc1ccccc1NS(=O)(=O)C(F)(F)F [Compound 53] | – | 5 | 40 | 10 | 40 | –
17 | CC1(C)CC(=O)N(Cc2ccccc2NS(=O)(=O)C(F)(F)F)O1 [Compound 20] | – | 0 | 40 | 15 | 25 | –

Source: patent US20140329679A1, “HERBICIDAL COMPOSITIONS COMPRISING TRIFLUOROME THANESULFONANILIDES AND SAFENERS” (priority 2011, published 2014)
